Experimental data from ChEMBL document CHEMBL1275354, “Anticonvulsant activity of 2,4(1H)-diarylimidazoles in mice and rats acute seizure models” (Bioorg Med Chem, 2010).
The source made the active and inactive calls. The calls are words filed in the database; no cut-off is given here.

Legend:
Mus musculus [1] = assay: Neurotoxicity in ip dosed albino CF1 mouse assessed as minimum dose required to cause toxicity after 0.5 hrs by rotarod test; format: organism-based; settings: in vivo
Mus musculus [2] = assay: Neurotoxicity in albino CF1 mouse assessed as minimal motor impairment at 30 mg/kg, ip after 0.5 hrs by rotarod test; format: toxicity, organism-based; design: dose 30 mg/kg, route intraperitoneal; settings: in vivo
Mus musculus [3] = assay: Anticonvulsant activity in albino CF1 mouse assessed as protection against maximal electroshock-induced seizures at 100 mg/kg, ip after 0.5 hrs; format: functional, organism-based; design: dose 100 mg/kg
Mus musculus [4] = assay: Anticonvulsant activity against subcutaneous metrazole-induced seizures in ip dosed albino CF1 mouse assessed as minimum effective dose after 4 hrs; format: functional; settings: albino CF1, 4 h, read-out: MED
Mus musculus [5] = assay: Neurotoxicity in albino CF1 mouse assessed as minimal motor impairment at 30 mg/kg, ip after 4 hrs by rotarod test; format: toxicity, organism-based; design: dose 30 mg/kg, route intraperitoneal; settings: in vivo
Mus musculus [6] = assay: Neurotoxicity in albino CF1 mouse assessed as minimal motor impairment at 100 mg/kg, ip after 0.5 hrs by rotarod test; format: toxicity, organism-based; design: dose 100 mg/kg, route intraperitoneal; settings: in vivo
Mus musculus [7] = assay: Neurotoxicity in albino CF1 mouse assessed as minimal motor impairment at 100 mg/kg, ip after 4 hrs by rotarod test; format: toxicity, organism-based; design: dose 100 mg/kg, route intraperitoneal; settings: in vivo
Mus musculus [8] = assay: Neurotoxicity in albino CF1 mouse assessed as minimal motor impairment at 300 mg/kg, ip after 4 hrs by rotarod test; format: toxicity, organism-based; design: dose 300 mg/kg, route intraperitoneal; settings: in vivo
Mus musculus [9] = assay: Anticonvulsant activity in albino CF1 mouse assessed as protection against maximal electroshock-induced seizures at 100 mg/kg, ip after 2 hrs; format: functional, organism-based; design: dose 100 mg/kg
Mus musculus [10] = assay: Anticonvulsant activity in albino CF1 mouse assessed as protection against maximal electroshock-induced seizures at 100 mg/kg, ip after 4 hrs; format: functional, organism-based; design: dose 100 mg/kg
Mus musculus [11] = assay: Anticonvulsant activity in albino CF1 mouse assessed as protection against maximal electroshock-induced seizures at 300 mg/kg, ip after 0.5 hrs; format: functional, organism-based; design: dose 300 mg/kg
Mus musculus [12] = assay: Anticonvulsant activity in albino CF1 mouse assessed as protection against maximal electroshock-induced seizures at 300 mg/kg, ip after 4 hrs; format: functional, organism-based; design: dose 300 mg/kg
Mus musculus [13] = assay: Anticonvulsant activity in albino CF1 mouse assessed as protection against subcutaneous metrazole-induced seizures at 30 mg/kg, ip after 0.5 hrs; format: functional, organism-based; design: dose 30 mg/kg
Mus musculus [14] = assay: Anticonvulsant activity in albino CF1 mouse assessed as protection against subcutaneous metrazole-induced seizures at 30 mg/kg, ip after 4 hrs; format: functional, organism-based; design: dose 30 mg/kg
Mus musculus [15] = assay: Anticonvulsant activity in albino CF1 mouse assessed as protection against subcutaneous metrazole-induced seizures at 100 mg/kg, ip after 0.5 hrs; format: functional, organism-based; design: dose 100 mg/kg
Mus musculus [16] = assay: Anticonvulsant activity in albino CF1 mouse assessed as protection against subcutaneous metrazole-induced seizures at 100 mg/kg, ip after 4 hrs; format: functional, organism-based; design: dose 100 mg/kg
Mus musculus [17] = assay: Anticonvulsant activity in albino CF1 mouse assessed as protection against subcutaneous metrazole-induced seizures at 300 mg/kg, ip after 0.5 hrs; format: functional, organism-based; design: dose 300 mg/kg
Mus musculus [18] = assay: Anticonvulsant activity in albino CF1 mouse assessed as protection against subcutaneous metrazole-induced seizures at 300 mg/kg, ip after 4 hrs; format: functional, organism-based; design: dose 300 mg/kg
Mus musculus [19] = assay: Neurotoxicity in albino CF1 mouse assessed as minimal motor impairment at 30 to 300 mg/kg, po after 4 hrs by rotarod test; format: toxicity, organism-based; design: dose 30-300 mg/kg, route oral; settings: in vivo
Mus musculus [20] = assay: Anticonvulsant activity in albino CF1 mouse assessed as protection against maximal electroshock-induced seizures at 30 mg/kg, ip after 0.5 hrs; format: functional, organism-based; design: dose 30 mg/kg
Mus musculus [21] = assay: Anticonvulsant activity in albino CF1 mouse assessed as protection against maximal electroshock-induced seizures at 30 mg/kg, ip after 4 hrs; format: functional, organism-based; design: dose 30 mg/kg
Mus musculus [22] = assay: Neurotoxicity in ip dosed albino CF1 mouse assessed as minimum dose required to cause toxicity after 4 hrs by rotarod test; format: organism-based; settings: in vivo
Mus musculus [23] = assay: Anticonvulsant activity against maximal electroshock-induced seizures in ip dosed albino CF1 mouse assessed as minimum effective dose after 0.5 hrs; format: functional; settings: read-out: MED
Mus musculus [24] = assay: Anticonvulsant activity against maximal electroshock-induced seizures in ip dosed albino CF1 mouse assessed as minimum effective dose after 4 hrs; format: functional; settings: read-out: MED
Mus musculus [25] = assay: Anticonvulsant activity against subcutaneous metrazole-induced seizures in ip dosed albino CF1 mouse assessed as minimum effective dose after 0.5 hrs; format: functional; settings: albino CF1, 0.5 h, read-out: MED
Mus musculus [26] = assay: Neurotoxicity in albino CF1 mouse assessed as minimal motor impairment at 30 to 300 mg/kg, ip after 0.5 hrs by rotarod test; settings: in vivo
Mus musculus [27] = assay: Anticonvulsant activity in albino CF1 mouse assessed as protection against subcutaneous metrazole-induced seizures at 150 mg/kg, ip after 1 hr; format: functional, organism-based; design: dose 150 mg/kg
Mus musculus [28] = assay: Anticonvulsant activity in albino CF1 mouse assessed as protection against subcutaneous metrazole-induced seizures at 300 mg/kg, ip after 1 hr; format: functional, organism-based; design: dose 300 mg/kg
Mus musculus [29] = assay: Neurotoxicity in albino CF1 mouse assessed as minimal motor impairment at 140 mg/kg, ip after 1 hr by rotarod test; format: toxicity, organism-based; design: dose 140 mg/kg, route intraperitoneal; settings: in vivo
Mus musculus [30] = assay: Anticonvulsant activity ip dosed albino CF1 mouse assessed as protection against maximal electroshock-induced seizures after 1 hr; format: functional
Mus musculus [31] = species: Mus musculus; assay: Protective index, ratio of TD50 for albino CF1 mouse after 1 hr by rotarod test to ED50 for albino CF1 mouse by maximal electroshock seizures test after 1 hr; format: functional
Mus musculus [32] = assay: Anticonvulsant activity in albino CF1 mouse assessed as protection against maximal electroshock-induced seizures at 60 mg/kg, ip after 1 hr; format: functional, organism-based; design: dose 60 mg/kg
[33] = Neurotoxicity in ip dosed albino CF1 mouse assessed as minimal motor impairment after 1 hr by rotarod test; format: toxicity, organism-based; settings: in vivo
Mus musculus [34] = assay: Anticonvulsant activity in albino CF1 mouse assessed as protection against subcutaneous metrazole-induced seizures at 75 mg/kg, ip after 1 hr; format: functional, organism-based; design: dose 75 mg/kg
[35] = target: Sodium channel protein type 2 subunit alpha (Homo sapiens, UniProt Q99250); assay: Inhibition of human NaV1.2 expressed in HEK cells at -60 mV holding potential by patch clamp recording technique; format: cell-based, HEK293
Sequence of Sodium channel protein type 2 subunit alpha (Q99250 whole entry): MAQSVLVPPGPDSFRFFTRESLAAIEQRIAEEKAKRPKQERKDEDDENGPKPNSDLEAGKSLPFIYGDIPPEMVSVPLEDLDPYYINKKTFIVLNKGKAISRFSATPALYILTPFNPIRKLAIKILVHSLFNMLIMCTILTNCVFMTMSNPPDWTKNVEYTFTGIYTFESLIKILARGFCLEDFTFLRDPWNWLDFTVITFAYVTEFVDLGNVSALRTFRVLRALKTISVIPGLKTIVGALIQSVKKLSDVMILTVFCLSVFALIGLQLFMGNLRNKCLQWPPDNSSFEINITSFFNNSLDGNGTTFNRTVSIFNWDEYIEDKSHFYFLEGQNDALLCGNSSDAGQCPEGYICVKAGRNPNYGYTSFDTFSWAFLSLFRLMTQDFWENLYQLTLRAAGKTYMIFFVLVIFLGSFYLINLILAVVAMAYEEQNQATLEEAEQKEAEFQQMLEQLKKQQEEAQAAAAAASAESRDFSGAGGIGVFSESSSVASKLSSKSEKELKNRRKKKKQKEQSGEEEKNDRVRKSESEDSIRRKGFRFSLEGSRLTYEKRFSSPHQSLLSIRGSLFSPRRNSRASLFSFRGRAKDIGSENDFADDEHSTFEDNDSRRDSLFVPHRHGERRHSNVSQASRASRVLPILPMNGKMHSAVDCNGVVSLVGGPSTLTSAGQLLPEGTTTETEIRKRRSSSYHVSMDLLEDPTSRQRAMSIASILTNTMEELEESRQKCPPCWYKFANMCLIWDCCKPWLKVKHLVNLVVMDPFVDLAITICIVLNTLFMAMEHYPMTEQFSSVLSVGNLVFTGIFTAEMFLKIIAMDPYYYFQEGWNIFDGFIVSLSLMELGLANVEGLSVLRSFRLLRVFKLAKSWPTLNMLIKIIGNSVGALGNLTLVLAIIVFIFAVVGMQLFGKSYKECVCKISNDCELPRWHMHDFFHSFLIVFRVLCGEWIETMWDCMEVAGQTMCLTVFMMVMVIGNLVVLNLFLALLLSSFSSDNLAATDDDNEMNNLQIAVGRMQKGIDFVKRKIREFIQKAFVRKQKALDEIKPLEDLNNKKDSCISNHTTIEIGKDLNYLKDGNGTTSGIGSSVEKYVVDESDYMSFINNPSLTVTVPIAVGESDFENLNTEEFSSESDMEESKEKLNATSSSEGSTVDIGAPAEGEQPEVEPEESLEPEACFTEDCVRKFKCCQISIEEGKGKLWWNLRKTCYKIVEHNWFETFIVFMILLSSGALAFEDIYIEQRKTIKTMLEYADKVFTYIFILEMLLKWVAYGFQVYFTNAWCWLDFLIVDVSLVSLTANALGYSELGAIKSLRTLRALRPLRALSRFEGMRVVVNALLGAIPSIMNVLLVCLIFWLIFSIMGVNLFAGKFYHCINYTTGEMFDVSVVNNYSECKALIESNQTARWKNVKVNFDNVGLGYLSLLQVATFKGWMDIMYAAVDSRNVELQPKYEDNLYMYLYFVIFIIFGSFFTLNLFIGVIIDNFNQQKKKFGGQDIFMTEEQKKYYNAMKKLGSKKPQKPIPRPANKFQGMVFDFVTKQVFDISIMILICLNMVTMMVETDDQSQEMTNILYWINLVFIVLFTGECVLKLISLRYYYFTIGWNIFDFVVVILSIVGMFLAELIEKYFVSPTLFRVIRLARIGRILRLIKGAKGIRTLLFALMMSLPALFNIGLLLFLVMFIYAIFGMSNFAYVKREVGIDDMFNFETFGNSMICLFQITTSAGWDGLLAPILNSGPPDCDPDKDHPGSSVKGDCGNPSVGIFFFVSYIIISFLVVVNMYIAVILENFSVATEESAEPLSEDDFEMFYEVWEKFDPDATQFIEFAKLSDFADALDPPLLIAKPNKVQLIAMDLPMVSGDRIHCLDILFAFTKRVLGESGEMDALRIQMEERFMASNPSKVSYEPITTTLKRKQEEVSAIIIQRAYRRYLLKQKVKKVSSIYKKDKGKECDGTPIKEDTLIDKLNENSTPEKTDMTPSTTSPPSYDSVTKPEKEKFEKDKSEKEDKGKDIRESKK

Mus musculus [36] = species: Mus musculus; assay: Protective index, ratio of TD50 for albino CF1 mouse by rotarod test to ED50 for albino CF1 mouse by maximal electroshock seizures test; format: functional
Rattus norvegicus [37] = assay: Neurotoxicity in albino Sprague-Dawley rat assessed as minimal motor impairment at 30 mg/kg, po by rotarod test; format: toxicity, organism-based; design: dose 30 mg/kg, route oral; settings: in vivo
Mus musculus [38] = assay: Anticonvulsant activity ip dosed albino CF1 mouse assessed as protection against maximal electroshock-induced seizures after 0.25 hrs; format: functional
Rattus norvegicus [39] = assay: Anticonvulsant activity in albino Sprague-Dawley rat assessed as protection against maximal electroshock-induced seizures at 30 mg/kg, po after 0.25 hrs; format: functional, organism-based; design: dose 30 mg/kg
Rattus norvegicus [40] = assay: Anticonvulsant activity in albino Sprague-Dawley rat assessed as protection against maximal electroshock-induced seizures at 30 mg/kg, po after 0.5 hrs; format: functional, organism-based; design: dose 30 mg/kg
Rattus norvegicus [41] = assay: Anticonvulsant activity in albino Sprague-Dawley rat assessed as protection against maximal electroshock-induced seizures at 30 mg/kg, po after 1 hr; format: functional, organism-based; design: dose 30 mg/kg
Rattus norvegicus [42] = assay: Anticonvulsant activity in albino Sprague-Dawley rat assessed as protection against maximal electroshock-induced seizures at 30 mg/kg, po after 2 hrs; format: functional, organism-based; design: dose 30 mg/kg
Rattus norvegicus [43] = assay: Anticonvulsant activity in albino Sprague-Dawley rat assessed as protection against maximal electroshock-induced seizures at 30 mg/kg, po after 4 hrs; format: functional, organism-based; design: dose 30 mg/kg
Mus musculus [44] = assay: Neurotoxicity in albino CF1 mouse assessed as minimal motor impairment at 300 mg/kg, ip after 0.5 hrs by rotarod test; format: toxicity, organism-based; design: dose 300 mg/kg, route intraperitoneal; settings: in vivo
Mus musculus [45] = assay: Neurotoxicity in albino CF1 mouse assessed as minimal motor impairment at 100 mg/kg, ip after 0.25 hrs by rotarod test; format: toxicity, organism-based; design: dose 100 mg/kg, route intraperitoneal; settings: in vivo
Mus musculus [46] = assay: Neurotoxicity in albino CF1 mouse assessed as minimal motor impairment at 100 mg/kg, ip after 1 hr by rotarod test; format: toxicity, organism-based; design: dose 100 mg/kg, route intraperitoneal; settings: in vivo
Mus musculus [47] = assay: Neurotoxicity in albino CF1 mouse assessed as minimal motor impairment at 100 mg/kg, ip after 2 hrs by rotarod test; format: toxicity, organism-based; design: dose 100 mg/kg, route intraperitoneal; settings: in vivo

In the case of `FC(F)(F)c1cccc(-c2nc(-c3ccccc3)c[nH]2)c1`, the MED (Mus musculus [1]) is reported as 100 mg/kg, the Activity (Mus musculus [2]) is reported as “Non-toxic” and the Activity (Mus musculus [3]) is reported as “inactive”. The minimal effective dose (Mus musculus [4]) was over 300 mg/kg, the Activity (Mus musculus [5]) was “Non-toxic” and the Activity (Mus musculus [6]) was “Non-toxic”. The Activity (Mus musculus [7]) was “Non-toxic”, the Activity (Mus musculus [8]) was “Non-toxic” and the Activity (Mus musculus [9]) was “inactive”. For the same compound, the Activity (Mus musculus [10]) was “inactive”, the Activity (Mus musculus [11]) was “inactive” and the Activity (Mus musculus [12]) was “Active”. The Activity (Mus musculus [13]) was “inactive”, the Activity (Mus musculus [14]) was “inactive” and the Activity (Mus musculus [15]) was “inactive”. For the same compound, the Activity (Mus musculus [16]) was “inactive”, the Activity (Mus musculus [17]) was “inactive” and the Activity (Mus musculus [18]) was “inactive”. For the same compound, the Activity (Mus musculus [19]) was “Non-toxic”, the Activity (Mus musculus [20]) was “inactive” and the Activity (Mus musculus [21]) was “inactive”. The MED (Mus musculus [22]) was over 300 mg/kg, the minimal effective dose (Mus musculus [23]) was over 300 mg/kg and the minimal effective dose (Mus musculus [24]) was 100 mg/kg. For the same compound, the minimal effective dose (Mus musculus [25]) was over 300 mg/kg and the Activity (Mus musculus [26]) was “Non-toxic”.
For `FC(F)(F)c1ccc(-c2nc(-c3ccccc3)c[nH]2)cc1`, the MED (Mus musculus [1]) was over 300 mg/kg, the Activity (Mus musculus [27]) was “inactive” and the Activity (Mus musculus [2]) was “Non-toxic”. For the same compound, the Activity (Mus musculus [3]) was “inactive”, the minimal effective dose (Mus musculus [4]) was over 300 mg/kg and the Activity (Mus musculus [28]) was “inactive”. For the same compound, the Activity (Mus musculus [29]) was “Non-toxic”, the ED50 (Mus musculus [30]) was 130 mg/kg and the PI (Mus musculus [31]) was over 3.8. For the same compound, the Activity (Mus musculus [32]) was “inactive”, the TD50 at 1 h [33] was over 500 mg/kg and the Activity (Mus musculus [34]) was “inactive”. For the same compound, the IC50 [35] was 10.1 µM, the PI (Mus musculus [36]) was over 3.8 and the Activity (Rattus norvegicus [37]) was “Non-toxic”. The ED50 (Mus musculus [38]) was 130 mg/kg, the Activity (Rattus norvegicus [39]) was “inactive” and the Activity (Rattus norvegicus [40]) was “inactive”. For the same compound, the Activity (Rattus norvegicus [41]) was “inactive”, the Activity (Rattus norvegicus [42]) was “inactive” and the Activity (Rattus norvegicus [43]) was “inactive”. For the same compound, the Activity (Mus musculus [5]) was “Non-toxic”, the Activity (Mus musculus [6]) was “Non-toxic” and the Activity (Mus musculus [7]) was “Non-toxic”. For the same compound, the Activity (Mus musculus [44]) was “Non-toxic”, the Activity (Mus musculus [8]) was “Non-toxic” and the Activity (Mus musculus [9]) was “inactive”. The Activity (Mus musculus [45]) was “Non-toxic”, the Activity (Mus musculus [46]) was “Non-toxic” and the Activity (Mus musculus [47]) was “Non-toxic”. For the same compound, the Activity (Mus musculus [10]) was “inactive”, the Activity (Mus musculus [11]) was “Active” and the Activity (Mus musculus [12]) was “Active”. The Activity (Mus musculus [13]) was “inactive”, the Activity (Mus musculus [14]) was “inactive” and the Activity (Mus musculus [15]) was “inactive”. For the same compound, the Activity (Mus musculus [16]) was “inactive”, the Activity (Mus musculus [17]) was “inactive” and the Activity (Mus musculus [18]) was “inactive”. For the same compound, the Activity (Mus musculus [19]) was “Non-toxic”, the Activity (Mus musculus [20]) was “inactive” and the Activity (Mus musculus [21]) was “inactive”. The MED (Mus musculus [22]) was over 300 mg/kg, the minimal effective dose (Mus musculus [23]) was 100 mg/kg and the minimal effective dose (Mus musculus [24]) was 100 mg/kg. The Activity (Mus musculus [26]) was “Non-toxic”.
